Assay [1] deals with T1, recombinant human meprin β (Homo sapiens, UniProt Q16820).
T1 sequence (Q16820 62-701): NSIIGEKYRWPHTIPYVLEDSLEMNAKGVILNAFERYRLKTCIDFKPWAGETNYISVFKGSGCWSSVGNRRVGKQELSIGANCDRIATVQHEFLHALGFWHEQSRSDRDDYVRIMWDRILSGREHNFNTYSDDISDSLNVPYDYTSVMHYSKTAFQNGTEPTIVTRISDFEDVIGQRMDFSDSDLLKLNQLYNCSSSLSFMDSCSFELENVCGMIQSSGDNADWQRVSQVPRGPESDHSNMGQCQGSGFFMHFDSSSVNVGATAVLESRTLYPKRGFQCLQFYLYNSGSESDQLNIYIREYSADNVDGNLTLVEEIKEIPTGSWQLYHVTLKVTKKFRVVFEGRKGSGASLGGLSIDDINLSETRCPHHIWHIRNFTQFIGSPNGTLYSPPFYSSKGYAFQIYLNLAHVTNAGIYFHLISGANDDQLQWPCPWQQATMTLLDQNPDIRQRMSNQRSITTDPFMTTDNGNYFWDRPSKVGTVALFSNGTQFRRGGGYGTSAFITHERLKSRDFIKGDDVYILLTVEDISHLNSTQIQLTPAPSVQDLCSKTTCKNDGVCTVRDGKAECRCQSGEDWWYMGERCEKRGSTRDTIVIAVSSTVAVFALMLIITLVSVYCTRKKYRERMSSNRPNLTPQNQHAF
The assay can be described thus: meprin β inhibition, quenched fluorogenic peptide substrate assay. The assay is classed as biochemical.

The target in assay [2] is T2, recombinant human meprin α (Homo sapiens, UniProt Q16819).
T2 sequence (Q16819 66-746): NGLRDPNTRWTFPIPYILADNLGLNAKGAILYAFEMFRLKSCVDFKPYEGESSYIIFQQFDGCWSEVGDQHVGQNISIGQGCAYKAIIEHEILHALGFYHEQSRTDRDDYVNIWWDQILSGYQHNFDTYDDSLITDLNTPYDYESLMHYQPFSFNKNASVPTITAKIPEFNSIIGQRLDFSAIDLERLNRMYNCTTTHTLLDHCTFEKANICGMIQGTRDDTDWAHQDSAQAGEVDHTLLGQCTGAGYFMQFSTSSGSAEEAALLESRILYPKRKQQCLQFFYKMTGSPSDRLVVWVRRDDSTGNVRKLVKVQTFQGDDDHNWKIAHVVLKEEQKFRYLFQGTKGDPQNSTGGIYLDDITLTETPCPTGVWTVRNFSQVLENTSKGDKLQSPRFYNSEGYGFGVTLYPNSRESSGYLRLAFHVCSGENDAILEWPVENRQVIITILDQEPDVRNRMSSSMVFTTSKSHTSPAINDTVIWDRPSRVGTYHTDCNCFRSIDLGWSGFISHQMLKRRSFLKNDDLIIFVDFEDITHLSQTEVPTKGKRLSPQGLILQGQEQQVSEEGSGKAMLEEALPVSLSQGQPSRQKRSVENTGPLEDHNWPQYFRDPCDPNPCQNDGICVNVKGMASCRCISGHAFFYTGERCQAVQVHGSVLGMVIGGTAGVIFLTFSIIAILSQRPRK
The assay can be described thus: meprin α inhibition, quenched fluorogenic peptide substrate assay. The note with it: for SF: selectivity factor (K i app meprin β/K i app meprin α): meprin α over meprin β. Format: biochemical.

Another assay has as its target T3, mouse ovastacin (Mus musculus, UniProt Q6HA09).
T3 sequence (Q6HA09 86-435 limits assumed): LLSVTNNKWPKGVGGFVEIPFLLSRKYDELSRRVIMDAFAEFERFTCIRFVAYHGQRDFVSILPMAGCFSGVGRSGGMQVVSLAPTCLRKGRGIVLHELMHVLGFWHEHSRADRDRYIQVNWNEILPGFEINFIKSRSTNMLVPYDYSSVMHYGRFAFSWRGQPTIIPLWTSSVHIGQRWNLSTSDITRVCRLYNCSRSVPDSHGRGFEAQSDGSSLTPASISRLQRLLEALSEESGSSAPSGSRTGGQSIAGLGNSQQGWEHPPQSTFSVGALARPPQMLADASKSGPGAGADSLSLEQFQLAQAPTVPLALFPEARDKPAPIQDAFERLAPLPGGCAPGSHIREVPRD
The experiment in a line: ovastacin inhibition, fluorogenic enzyme activity assay.

On to `O=C(CCn1c(-c2ccccc2)ccc1-c1ccccc1)NO` [2 b, 3‐(2,5‐Diphenylpyrrol‐1‐yl)propanehydroxamic acid], for which the Ki in assay [1] was found to be 15 µM. In assay [2], the Ki stood at 736 nM and the “SF: selectivity factor (K i app meprin β/K i app meprin α)” value (“SF: selectivity factor” for short) is listed as 20.

With `O=C(CCn1c(-c2ccccc2)nnc1-c1ccccc1)NO` [2 h, 3‐(3,5‐Diphenyl‐1,2,4‐triazol‐4‐yl)propanehydroxamic acid], the Ki in assay [1] came to 42.3 µM. Besides, in assay [2], the Ki is 306 nM and the “SF: selectivity factor” value was found to be 138. For the same compound, on mouse ovastacin, the Ki was determined as 31800 nM, the “SF Meprin α: selectivity factor (K i app ovastacin/K i app meprin α)” value (“SF Meprin α: selectivity factor” for short) was 104 and the “SF Meprin β: selectivity factor (K i app ovastacin/K i app meprin β)” value (from here on “SF Meprin β: selectivity factor”) is given as 0.8.

Turning to `O=C(Cc1c(-c2ccccc2)ncn1-c1ccccc1)NO` [2 i, 2‐(3,5‐Diphenylimidazol‐4‐yl)ethanehydroxamic acid], the Ki in assay [1] worked out at 0.443 µM. Besides, in assay [2], the Ki is 2 nM and the “SF: selectivity factor” value was found to be 222.

Take `O=C(Cc1c(-c2ccccc2)nnn1-c1ccccc1)NO` [2 j, 2‐(3,5‐Diphenyl‐1,2,3‐triazol‐4‐yl)ethanehydroxamic acid]: the Ki in assay [1] is 1.45 µM. In addition, in assay [2], the Ki worked out at 9 nM and the “SF: selectivity factor” value is 161.

`O=C(Cn1nc(-c2ccccc2)cc1-c1ccccc1)NO` [3 a, 2‐(3,5‐Diphenylpyrazol‐1‐yl)ethanehydroxamic acid]: the Ki in assay [1] was found to be 10.4 µM. In assay [2], the Ki was found to be 256 nM and the “SF: selectivity factor” value came to 41. Moreover, at mouse ovastacin, the Ki is 1050 nM, the “SF Meprin α: selectivity factor” value is reported as 4 and the “SF Meprin β: selectivity factor” value is 0.1.

As to `O=C(CCn1nc(-c2ccccc2)cc1-c1ccccc1)NO` [3 b, 3‐(3,5‐Diphenylpyrazol‐1‐yl)propanehydroxamic acid], in assay [1], the Ki was 15.4 µM. Moreover, in assay [2], the Ki came to 406 nM and the “SF: selectivity factor” value was 38. In addition, on mouse ovastacin, the Ki worked out at 1100 nM, the “SF Meprin α: selectivity factor” value came out at 3 and the “SF Meprin β: selectivity factor” value came out at 0.1.

In the case of `O=C(CCn1c(-c2ccccc2)cc2ccccc21)NO` [4 b, 3‐(2‐Phenylindol‐1‐yl)propanehydroxamic acid], in assay [1], the Ki worked out at 17 µM. Further, in assay [2], the Ki worked out at 414 nM and the “SF: selectivity factor” value stood at 41. At mouse ovastacin, affinity was put at a Ki of 1300 nM, the “SF Meprin α: selectivity factor” value was determined as 3.1 and the “SF Meprin β: selectivity factor” value came out at 0.1.

Take `O=C(CCn1c(-c2ccccc2)nc2ccccc21)NO` [4 d, 3‐(2‐Phenylbenzimidazol‐1‐yl)propanehydroxamic acid]: the Ki in assay [1] was found to be 27.9 µM. Moreover, in assay [2], the Ki was determined as 1030 nM and the “SF: selectivity factor” value was found to be 27. Further, on mouse ovastacin, the Ki was 9800 nM, the “SF Meprin α: selectivity factor” value is on record as 9.5 and the “SF Meprin β: selectivity factor” value is 0.4.

Consider `O=C(Cc1c(-c2ccccc2)[nH]c2ccccc12)NO` [4 e, 2‐(2‐Phenyl‐1H‐indol‐3‐yl)ethanehydroxamic acid], for which the Ki in assay [1] came to 1.18 µM. In assay [2], the Ki turned out to be 82 nM and the “SF: selectivity factor” value came out at 14.

`O=C(Cn1c(-c2ccccc2)nc2cccnc21)NO` [4 f, 2‐(2‐Phenylimidazo[4,5‐b]pyridin‐3‐yl)ethanehydroxamic acid]: the Ki in assay [1] stood at 4.56 µM. Besides, in assay [2], the Ki was determined as 262 nM and the “SF: selectivity factor” value stood at 17.

Consider `O=C(Cn1c(-c2ccccc2)nc2ncccc21)NO` [4 g, 2‐(2‐Phenylimidazo[4,5‐b]pyridin‐1‐yl)ethane‐hydroxamic acid], for which the values for the Ki in assay [1] and in assay [2] were 4.17 µM and 1480 nM, respectively. Further, in assay [2], the “SF: selectivity factor” value is on record as 3.

Take `O=C(Cc1c2ccccc2nn1-c1ccccc1)NO` [4 h, 2‐(2‐Phenylindazol‐3‐yl)ethanehydroxamic acid]: the Ki in assay [1] was 3.36 µM. Further, in assay [2], the Ki was found to be 273 nM and the “SF: selectivity factor” value worked out at 12.

On to `CCCCC[C@H](CC(=O)NO)C(=O)N[C@H](C(=O)N1CCC[C@H]1CO)C(C)C` [Actinonin, reference compound], for which, in assay [1], the Ki is 0.219 µM. Besides, in assay [2], the Ki was determined as 8 nM and the “SF: selectivity factor” value is recorded as 27.

These data come from paper PMC8048867 (Chemmedchem, 2020).
